Experimental data taken from patent publication US20260256751A1, “COMBINATION OF BETA-2-ADRENERGIC RECEPTOR AGONISTS AND GLP-1 RECEPTOR AGONISTS FOR USE IN TREATING HYPERGLYCAEMIA” (ATROGI AB, priority 2023, published 2026).

What was measured:
[1] = tested on: differentiated L6-myotubes; test: Glucose uptake screen (Biological example 1 of WO 2019/053427); format: cell-based; conditions: compound at 10 μM, activity relative to isoproterenol at 10 μM, read-out: Biological example 1 of WO 2019/053427 (GU)
Summary of the method: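 Uptake was read out as ^3H-2-deoxyglucose (50 nM, 10 min) radioactivity in NaOH lysates. Beforehand, overnight-starved, differentiated L6 myotubes received compound at 1×10^−5 M with ICI-118551 present for 1 h 40 min, followed by fresh agonist for a further 20 min in glucose-free medium.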

[2] = tested on: differentiated L6-myotubes; test: cAMP production relative to isoprenaline (Biological example 2 of WO 2019/053427); format: cell-based; conditions: 0.25 h, compound at 10 μM, activity relative to isoproterenol at 10 μM
Summary of the method: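 Values are cAMP levels relative to isoprenaline at equal concentration (final 1×10^−5 M for both). Stimulation lasted 15 min in differentiated L6 myotubes, using HBSS buffer (pH 7.4) containing 1 mM IBMX, 5 mM HEPES and 1% BSA.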

SMILES	Emax at 10 µM [1]	Emax at 10 µM [2]
CO[C@H]1CC[C@H](C[C@@H]2CC[C@H]([C@@H](O)c3cccc(F)c3)N2)CC1 [Compound 325, (S)-[(2R,5S)-5-{[(1r,4S)-4-methoxycyclohexyl]methyl}-2-pyrrolidinyl](m-fluorophenyl)methanol]	> 75%	< 25%
CO[C@H]1CC[C@H](C[C@@H]2CC[C@H]([C@@H](O)c3cncc(F)c3)N2)CC1 [Compound 332, (S)-[(2R,5S)-5-{[(1r,4S)-4-methoxycyclohexyl]methyl}-2-pyrrolidinyl](5-fluoro-3-pyridyl)methanol]	25 to 50%	< 25%
CCC[C@@H]1CC[C@@H]([C@H](O)c2cccc(F)c2)N1 [Compound 132, (R)-[(2S,5R)-5-propyl-2-pyrrolidinyl](m-fluorophenyl)methanol]	25 to 50%	< 25%
CCC[C@H]1CCC[C@@H]([C@@H](O)c2cccc(F)c2)N1 [Compound 119, (S)-[(2S,6S)-6-propyl-2-piperidyl](m-fluorophenyl)methanol]	25 to 50%	< 25%
CC(C)(C[C@H]1CC[C@@H](NS(C)(=O)=O)CC1)NC[C@H](O)c1cccc(C#N)n1 [Compound 422, 6-[(S)-2-{1,1-dimethyl-2-[(1s,4R)-4-(mesylamino)cylcohexyl]ethylamino}-1-hydroxyethyl]-2-pyridinecarbonitrile]	50 to 75%	< 25%
O[C@@H](c1cccc(F)c1)[C@H]1CCC2(CCCC2)N1 [Compound 169, (S)-{(R)-1-aza-2-spiro[4.4]nonyl}(m-fluorophenyl)methanol]	< 25%	< 25%
CC12CC(C1)[C@H]([C@@H](O)c1cccc(F)c1)N2 [Compound 187, (S)-{(R)-1-methyl-2-azabicyclo[2.1.1]hex-3-yl}(m-fluorophenyl)methanol]	25 to 50%	< 25%
CC1(C)CC[C@H]([C@H](O)c2cccc(F)c2)N1 [Compound 110, (R)-[(R)-5,5-dimethyl-2-pyrrolidinyl](m-fluorophenyl)methanol]	> 75%	< 25%
CS(=O)(=O)N[C@H]1CC[C@H](CNC[C@H](O)c2cncc(F)c2)CC1 [Compound 313, (R)-1-(5-fluoro-3-pyridyl)-2-({[(1r,4R)-4-(mesylamino)cyclohexyl]methyl}amino)-1-ethanol]	25 to 50%	< 25%
CC(C)(C)NC[C@H](O)c1cncc(F)c1 [Compound 99, (R)-2-(tert-butylamino)-1-(5-fluoro-3-pyridyl)-1-ethanol]	> 75%	25 to 50%
O[C@@H](CNCCC[C@H]1CC[C@@H](OCc2ccccc2)CC1)c1cncc(F)c1 [Compound 275, (R)-1-(5-fluoro-3-pyridyl)-2-{3-[(1s,4R)-4-(benzyloxy)cyclohexyl]pro-pylamino}-1-ethanol]	50 to 75%	< 25%
O[C@@H](c1cccc(F)c1)[C@H]1CC[C@H](Cc2ccc(Cl)cc2)N1 [Compound 394, (S)-{(2R,5R)-5-[(p-chlorophenyl)methyl]-2-pyrrolidinyl}(m-fluorophenyl)methanol]	50 to 75%	< 25%
Oc1ccc(C(O)CNCCCC2CC2)cc1 (centres unmarked) [Compound 30, 2-(3-cyclopropylpropylamino)-1-(p-hydroxyphenyl)-1-ethanol]	> 75%	< 25%
CC1(C)C[C@@H]([C@@H](O)c2cccc(F)c2)N1 [Compound 199, (S)-[(S)-4,4-dimethyl-2-azetidinyl](m-fluorophenyl)methanol]	25 to 50%	< 25%
CC1(C)CC[C@H]([C@H](O)c2ccccc2F)N1 [Compound 175, (R)-[(R)-5,5-dimethyl-2-pyrrolidinyl](o-fluorophenyl)methanol]	> 75%	25 to 50%
CC1(C)C[C@@H]([C@H](O)c2cccc(F)c2)N1 [Compound 200, (R)-[(S)-4,4-dimethyl-2-azetidinyl](m-fluorophenyl)methanol]	< 25%	< 25%
CC1(C)C[C@H]([C@H](O)c2cccc(Cl)c2)N1 [Compound 230, (R)-[(R)-4,4-dimethyl-2-azetidinyl](m-chlorophenyl)methanol]	> 75%	< 25%
O[C@@H](c1cccc(F)c1)C12CCC(CCc3cccnc3)(CC1)N2 [Compound 445, (S)-(m-fluorophenyl){4-[2-(3-pyridyl)ethyl]-7-azabicyclo[2.2.1]hept-1-yl}methanol]	> 75%	< 25%
CC12CC(C1)[C@@H]([C@@H](O)c1cccc(N)c1F)N2 [Compound 242, (S)-{(S)-1-methyl-2-azabicyclo[2.1.1]hex-3-yl}(3-amino-2-fluorophenyl)methanol]	50 to 75%	< 25%
O[C@@H](CNCC[C@H]1CC[C@H](OCc2ccccc2)CC1)c1cncc(F)c1 [Compound 292, (R)-1-(5-fluoro-3-pyridyl)-2-{2-[(1r,4R)-4-(benzyloxy)cyclohexyl]ethylamino}-1-ethanol]	< 25%	< 25%
O[C@@H](CNC[C@H]1CC[C@H](O)CC1)c1cncc(F)c1 [Compound 274, (R)-1-(5-fluoro-3-pyridyl)-2-({[(1r,4R)-4-hydroxycyclohexyl]meth-yl}amino)-1-ethanol]	< 25%	< 25%
CC(C)(C)NC[C@H](O)c1cncc(O)c1 [Compound 100, 5-[(R)-2-(tert-butylamino)-1-hydroxyethyl]-3-pyridinol]	> 75%	< 25%
CC12CC(C1)[C@H]([C@@H](O)c1cccc(N)c1F)N2 [Compound 243, (S)-{(R)-1-methyl-2-azabicyclo[2.1.1]hex-3-yl}(3-amino-2-fluorophenyl)methanol]	50 to 75%	< 25%
CC(C)(C[C@H]1CC[C@@H](N)CC1)NC[C@H](O)c1cccc(F)c1 [Compound 456, (R)-2-{1,1-dimethyl-2-[(1s,4S)-4-aminocyclohexyl]ethylamino}-1-(m-fluorophenyl)-1-ethanol]	> 75%	< 25%
CC(C)(C[C@H]1CC[C@@H](NS(=O)(=O)C2CC2)CC1)NC[C@H](O)c1cccc(F)c1 [Compound 494, (R)-2-{1,1-dimethyl-2-[(1s,4S)-4-(cyclopropylsuflonylamino)cyclohexyl]ethylamino}-1-(m-fluorophenyl)-1-ethanol]	25 to 50%	< 25%
CC1(C)CC[C@H]([C@@H](O)c2cccc(F)c2)N1 [Compound 109, (S)-[(R)-5,5-dimethyl-2-pyrrolidinyl](m-fluorophenyl)methanol]	25 to 50%	< 25%
CCCCNCC(O)c1ccc(=O)[nH]c1 (centres unmarked) [Compound 63, 5-[2-(butylamino)-1-hydroxyethyl]-2(1H)-pyridinone]	25 to 50%	< 25%
CC(C)(C[C@H]1CC[C@H](NS(=O)(=O)C(F)(F)F)CC1)NC[C@H](O)c1cccc(F)c1 [Compound 458, (R)-2-{1,1-dimethyl-2-[(1r,4R)-4-(trifluoromesylamino)cyclohexyl]ethylamino}-1-(m-fluorophenyl)-1-ethanol]	> 75%	< 25%
